Data: article PMC11944677, “Integrating Surface Plasmon Resonance and Docking Analysis for Mechanistic Insights of Tryptase Inhibitors” (Molecules, 2025)

Target: T1, human tryptase beta-2 (hTPSB2) (Homo sapiens, UniProt P20231)
T1 construct: gene TPSB2
Assay: biochemical

T1 sequence (P20231 31-275): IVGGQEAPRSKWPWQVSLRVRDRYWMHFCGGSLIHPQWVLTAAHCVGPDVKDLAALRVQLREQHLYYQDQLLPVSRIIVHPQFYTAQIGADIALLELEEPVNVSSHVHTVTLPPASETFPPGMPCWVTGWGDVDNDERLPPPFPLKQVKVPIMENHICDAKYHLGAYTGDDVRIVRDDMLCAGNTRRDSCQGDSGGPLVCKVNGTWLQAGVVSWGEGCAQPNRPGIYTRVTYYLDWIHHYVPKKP

Row | SMILES | Kd [nM]
1 | C[Si](C)(O)c1coc2ccc(C(=O)N3CCC(c4cccc(CN)c4)CC3)cc12 [#2m, compound #2m] | 81
2 | C[Si](C)(O[Si](C)(C)c1coc2ccc(C(=O)N3CCC(c4cccc(CN)c4)CC3)cc12)c1coc2ccc(C(=O)N3CCC(c4cccc(CN)c4)CC3)cc12 [#2d, compound #2d] | 2.1
